What was measured:
Assay type in all cases: cell-based
Conditions in all cases: for Activity of the biocides determined 1 week after germ addition, week 1: week 1, polymer emulsion pH 6.5; for Activity of the biocides determined 1 week after germ addition, week 2: week 2, polymer emulsion pH 6.5; for Activity of the biocides determined 1 week after germ addition, week 3: week 3, polymer emulsion pH 6.5; for Activity of the biocides determined 1 week after germ addition, week 4: week 4, polymer emulsion pH 6.5; for Activity of the biocides determined 1 week after germ addition, week 5: week 5, polymer emulsion pH 6.5; for Activity of the biocides determined 1 week after germ addition, week 6: week 6, polymer emulsion pH 6.5
[1] = system: Yeasts: Candida albicans and Rhodotorula rubra; test: Microbiological stress test, preservation of a polymer emulsion: yeasts
Source text: (§1) The preserving effect of an inventive composition comprising DBDCB and ZPT in a polymer emulsion (acrylate-based, pH=6.5) was investigated using a microbiological stress test. The microbiological stress test examines the susceptibility of water-based systems to microbial attack and the effect of preservatives. To this end, the preservatives are incorporated in defined concentrations into the water-based systems. […] Having knowledge of the microorganism populations prevalent in polymer emulsions and dispersions the experiment employed a mixture of the following microorganism types for testing: Yeasts: Candida albicans and Rhodotorula rubra.

[2] = system: Bacteria: Escherichia coli, Pseudomonas aeruginosa and Staphylococcus aureus; test: Microbiological stress test, preservation of a polymer emulsion: bacteria
Source text: as §1, with “Bacteria: Escherichia coli, Pseudomonas aeruginosa” for “Yeasts: Candida albicans”, “Staphylococcus aureus.” for “Rhodotorula rubra.”

[3] = system: Molds: Acremonium strictum, Aspergillus niger and Geotrichum candidu; test: Microbiological stress test, preservation of a polymer emulsion: molds
Source text: as §1, with “Molds: Acremonium strictum, Aspergillus niger” for “Yeasts: Candida albicans”, “Geotrichum candidu.” for “Rhodotorula rubra.”

SMILES: N#CCCC(Br)(C#N)CBr (stereo not drawn) [DBDCB, 1,2-Dibromo-2,4-dicyanobutane]
- Activity of the biocides determined 1 week after germ addition, week 1 ([1]; 0.025 wt % biocide added): 0 (no reduction or only a minor reduction of the microbe level is observed (residual level of at least 10^5 bacteria/10^4 mold/yeast cells per g) (score of 0=poor))
- Activity of the biocides determined 1 week after germ addition, week 2 ([1]; 0.025 wt % biocide added): 0 (no reduction or only a minor reduction of the microbe level is observed (residual level of at least 10^5 bacteria/10^4 mold/yeast cells per g) (score of 0=poor))
- Activity of the biocides determined 1 week after germ addition, week 3 ([1]; 0.025 wt % biocide added): 0 (no reduction or only a minor reduction of the microbe level is observed (residual level of at least 10^5 bacteria/10^4 mold/yeast cells per g) (score of 0=poor))
- Activity of the biocides determined 1 week after germ addition, week 4 ([1]; 0.025 wt % biocide added): 0 (no reduction or only a minor reduction of the microbe level is observed (residual level of at least 10^5 bacteria/10^4 mold/yeast cells per g) (score of 0=poor))
- Activity of the biocides determined 1 week after germ addition, week 5 ([1]; 0.025 wt % biocide added): 0 (no reduction or only a minor reduction of the microbe level is observed (residual level of at least 10^5 bacteria/10^4 mold/yeast cells per g) (score of 0=poor))
- Activity of the biocides determined 1 week after germ addition, week 6 ([1]; 0.025 wt % biocide added): 0 (no reduction or only a minor reduction of the microbe level is observed (residual level of at least 10^5 bacteria/10^4 mold/yeast cells per g) (score of 0=poor))
- Activity of the biocides determined 1 week after germ addition, week 1 ([1]; 0.05 wt % biocide added): 0 (no reduction or only a minor reduction of the microbe level is observed (residual level of at least 10^5 bacteria/10^4 mold/yeast cells per g) (score of 0=poor))
- Activity of the biocides determined 1 week after germ addition, week 2 ([1]; 0.05 wt % biocide added): 0 (no reduction or only a minor reduction of the microbe level is observed (residual level of at least 10^5 bacteria/10^4 mold/yeast cells per g) (score of 0=poor))
- Activity of the biocides determined 1 week after germ addition, week 3 ([1]; 0.05 wt % biocide added): 0 (no reduction or only a minor reduction of the microbe level is observed (residual level of at least 10^5 bacteria/10^4 mold/yeast cells per g) (score of 0=poor))
- Activity of the biocides determined 1 week after germ addition, week 4 ([1]; 0.05 wt % biocide added): 0 (no reduction or only a minor reduction of the microbe level is observed (residual level of at least 10^5 bacteria/10^4 mold/yeast cells per g) (score of 0=poor))
- Activity of the biocides determined 1 week after germ addition, week 5 ([1]; 0.05 wt % biocide added): 0 (no reduction or only a minor reduction of the microbe level is observed (residual level of at least 10^5 bacteria/10^4 mold/yeast cells per g) (score of 0=poor))
- Activity of the biocides determined 1 week after germ addition, week 6 ([1]; 0.05 wt % biocide added): 0 (no reduction or only a minor reduction of the microbe level is observed (residual level of at least 10^5 bacteria/10^4 mold/yeast cells per g) (score of 0=poor))
- Activity of the biocides determined 1 week after germ addition, week 1 ([2]; 0.025 wt % biocide added): 0 (no reduction or only a minor reduction of the microbe level is observed (residual level of at least 10^5 bacteria/10^4 mold/yeast cells per g) (score of 0=poor))
- Activity of the biocides determined 1 week after germ addition, week 2 ([2]; 0.025 wt % biocide added): 0 (no reduction or only a minor reduction of the microbe level is observed (residual level of at least 10^5 bacteria/10^4 mold/yeast cells per g) (score of 0=poor))
- Activity of the biocides determined 1 week after germ addition, week 3 ([2]; 0.025 wt % biocide added): 0 (no reduction or only a minor reduction of the microbe level is observed (residual level of at least 10^5 bacteria/10^4 mold/yeast cells per g) (score of 0=poor))
- Activity of the biocides determined 1 week after germ addition, week 4 ([2]; 0.025 wt % biocide added): 0 (no reduction or only a minor reduction of the microbe level is observed (residual level of at least 10^5 bacteria/10^4 mold/yeast cells per g) (score of 0=poor))
- Activity of the biocides determined 1 week after germ addition, week 5 ([2]; 0.025 wt % biocide added): 0 (no reduction or only a minor reduction of the microbe level is observed (residual level of at least 10^5 bacteria/10^4 mold/yeast cells per g) (score of 0=poor))
- Activity of the biocides determined 1 week after germ addition, week 6 ([2]; 0.025 wt % biocide added): 0 (no reduction or only a minor reduction of the microbe level is observed (residual level of at least 10^5 bacteria/10^4 mold/yeast cells per g) (score of 0=poor))
- Activity of the biocides determined 1 week after germ addition, week 1 ([2]; 0.05 wt % biocide added): 0 (no reduction or only a minor reduction of the microbe level is observed (residual level of at least 10^5 bacteria/10^4 mold/yeast cells per g) (score of 0=poor))
- Activity of the biocides determined 1 week after germ addition, week 2 ([2]; 0.05 wt % biocide added): 0 (no reduction or only a minor reduction of the microbe level is observed (residual level of at least 10^5 bacteria/10^4 mold/yeast cells per g) (score of 0=poor))
- Activity of the biocides determined 1 week after germ addition, week 3 ([2]; 0.05 wt % biocide added): 0 (no reduction or only a minor reduction of the microbe level is observed (residual level of at least 10^5 bacteria/10^4 mold/yeast cells per g) (score of 0=poor))
- Activity of the biocides determined 1 week after germ addition, week 4 ([2]; 0.05 wt % biocide added): 0 (no reduction or only a minor reduction of the microbe level is observed (residual level of at least 10^5 bacteria/10^4 mold/yeast cells per g) (score of 0=poor))
- Activity of the biocides determined 1 week after germ addition, week 5 ([2]; 0.05 wt % biocide added): 0 (no reduction or only a minor reduction of the microbe level is observed (residual level of at least 10^5 bacteria/10^4 mold/yeast cells per g) (score of 0=poor))
- Activity of the biocides determined 1 week after germ addition, week 6 ([2]; 0.05 wt % biocide added): 0 (no reduction or only a minor reduction of the microbe level is observed (residual level of at least 10^5 bacteria/10^4 mold/yeast cells per g) (score of 0=poor))
- Activity of the biocides determined 1 week after germ addition, week 1 ([3]; 0.025 wt % biocide added): 0 (no reduction or only a minor reduction of the microbe level is observed (residual level of at least 10^5 bacteria/10^4 mold/yeast cells per g) (score of 0=poor))
- Activity of the biocides determined 1 week after germ addition, week 2 ([3]; 0.025 wt % biocide added): 0 (no reduction or only a minor reduction of the microbe level is observed (residual level of at least 10^5 bacteria/10^4 mold/yeast cells per g) (score of 0=poor))
- Activity of the biocides determined 1 week after germ addition, week 3 ([3]; 0.025 wt % biocide added): 0 (no reduction or only a minor reduction of the microbe level is observed (residual level of at least 10^5 bacteria/10^4 mold/yeast cells per g) (score of 0=poor))
- Activity of the biocides determined 1 week after germ addition, week 4 ([3]; 0.025 wt % biocide added): 0 (no reduction or only a minor reduction of the microbe level is observed (residual level of at least 10^5 bacteria/10^4 mold/yeast cells per g) (score of 0=poor))
- Activity of the biocides determined 1 week after germ addition, week 5 ([3]; 0.025 wt % biocide added): 0 (no reduction or only a minor reduction of the microbe level is observed (residual level of at least 10^5 bacteria/10^4 mold/yeast cells per g) (score of 0=poor))
- Activity of the biocides determined 1 week after germ addition, week 6 ([3]; 0.025 wt % biocide added): 0 (no reduction or only a minor reduction of the microbe level is observed (residual level of at least 10^5 bacteria/10^4 mold/yeast cells per g) (score of 0=poor))
- Activity of the biocides determined 1 week after germ addition, week 1 ([3]; 0.05 wt % biocide added): 0 (no reduction or only a minor reduction of the microbe level is observed (residual level of at least 10^5 bacteria/10^4 mold/yeast cells per g) (score of 0=poor))
- Activity of the biocides determined 1 week after germ addition, week 2 ([3]; 0.05 wt % biocide added): 0 (no reduction or only a minor reduction of the microbe level is observed (residual level of at least 10^5 bacteria/10^4 mold/yeast cells per g) (score of 0=poor))
- Activity of the biocides determined 1 week after germ addition, week 3 ([3]; 0.05 wt % biocide added): 0 (no reduction or only a minor reduction of the microbe level is observed (residual level of at least 10^5 bacteria/10^4 mold/yeast cells per g) (score of 0=poor))
- Activity of the biocides determined 1 week after germ addition, week 4 ([3]; 0.05 wt % biocide added): 0 (no reduction or only a minor reduction of the microbe level is observed (residual level of at least 10^5 bacteria/10^4 mold/yeast cells per g) (score of 0=poor))
- Activity of the biocides determined 1 week after germ addition, week 5 ([3]; 0.05 wt % biocide added): 0 (no reduction or only a minor reduction of the microbe level is observed (residual level of at least 10^5 bacteria/10^4 mold/yeast cells per g) (score of 0=poor))
- Activity of the biocides determined 1 week after germ addition, week 6 ([3]; 0.05 wt % biocide added): 0 (no reduction or only a minor reduction of the microbe level is observed (residual level of at least 10^5 bacteria/10^4 mold/yeast cells per g) (score of 0=poor))
